Laboratory results taken from patent US20120128665A1, “PRESELECTION OF SUBJECTS FOR THERAPEUTIC TREATMENT BASED ON HYPOXIC STATUS” (SYNTA PHARMACEUTICALS CORP., priority 2010, published 2012).
Like-named read-outs stand apart in the source and are kept apart here.

Tests used:
[1] = system: cancer of the parotid gland; settings: one patient; ganetespib 150 mg/m^2 with docetaxel 75 mg/m^2; cited from earlier work
[2] = system: advanced relapsed/refractory NSCLC; settings: cited from earlier work
solid tumors = settings: once-weekly dosing; cited from earlier work
[3] = system: HCT116 tumors vs 786O tumors; test: response of hypoxic vs non-hypoxic tumors; format: in vivo, nude mice; settings: doses as in the 3rd table
[4] = system: wide range of cancer types; settings: cited from earlier work
[5] = system: 786-O human renal carcinoma xenograft; test: 786-O xenograft model (non-hypoxic tumor); format: in vivo, nude mice
Method: (§1) Human tumor cell lines HCT116 (ATCC #CRL-247; Schroy PC, et al. Cancer 76:201-209, 1995) and 786-O (ATCC #CRL-1932; Williams RD, et al. In Vitro 12:623-627, 1976), were obtained from the American Type Culture Collection (Manassus, Va., USA) were cultured using routine methods until a sufficient number of cells were obtained for implantation. Studies were conducted on animals between 7 and 12 weeks of age at implantation. To implant HCT116 tumor cells into nude mice, the cells were trypsinized, washed in PBS and resuspended at a concentration of 75×10^6 cells/ml in McCoy's modified medium with 50% of BD Matrigel® Basement Membrane Matrix (BD Biosciences®, Bedford, Mass., USA). To implant 786-O tumor cells into nude mice, the cells were trypsinized as above, washed in PBS and resuspended at a concentration of 75×10^6 cells/ml in RPMI 1640 medium with 50% of BD Matrigel® Basement Membrane Matrix. Using a 27 gauge needle and 1 cc syringe, 0.1 ml of the cell suspension was injected into the corpus adiposum of nude mice. The corpus adiposum is a fat body located in the ventral abdominal vicera in the right quadrant of the abdomen at the juncture of the os coxae (pelvic bone) and the os femoris (femur). The location permits palpation and measurement of the tumors using external calipers. Tumor volumes (V) were calculated by caliper measurement of the width (W), length (L) and thickness (T) of tumors using the following formula: V=0.5236×(L×W×T). Animals were randomized into treatment groups so that the average tumor volumes of each group were similar at the start of dosing.
(§2) A tumor model in which the tumors have relatively high and low levels of LDH5, indicating high and low levels of hypoxia, using human tumor cell lines HCT116 and 786-O was established as set forth in the previous example.
(§3) As above, HCT116 and 786-O cells were cultured and implanted into nude mice using the methods in the previous example. Tumor growth was measured using calipers. Prior to treatment with the various agents, tumors were permitted to develop in vivo until they reached approximately 150 mm^3 in volume, which typically required 2-3 weeks following implantation. Animals were randomized into treatment groups so that the average tumor volumes of each group were similar at the start of dosing.
(§4) Tumor volume was monitored throughout the course of the study, until up to about 40 days from the date of tumor implantation. The exact number of days of the study depended on a number of factors including, for example, the number of days from implantation for the tumors to reach the desired volume.

glioblastoma [6] = settings: 85 patients treated with bevacizumab alone; cited from earlier work
glioblastoma [7] = settings: 56 patients treated with bevacizumab alone; cited from earlier work
[8] = system: metastatic colorectal cancer; settings: cited from earlier work
[9] = system: HCT116 human colon carcinoma xenograft; test: HCT116 xenograft model (hypoxic tumor); format: in vivo, nude mice
Method: as §1, §2, §3, §4

[10] = system: metastatic colorectal cancer; settings: cited from earlier work; remark: listed apart in the source
[11] = system: advanced non-squamous, non-small cell lung cancer (NSCLC); settings: bevacizumab arm = with paclitaxel and carboplatin; comparator chemotherapy alone; statistically significant; cited from earlier work
renal cancer = settings: cited from earlier work
[12] = system: HER2-negative, metastatic breast cancer; settings: added to standard chemotherapy; cited from earlier work
[13] = system: metastatic pancreatic cancer; settings: cited from earlier work

Compound: CC(C)c1cc(-c2nnc(O)n2-c2ccc3c(ccn3C)c2)c(O)cc1O [ganetespib]
- shrinkage of target tumor lesions, confirmed partial response [1]: over 50%
- patients with durable, objective responses ([2]; ALK rearrangement, four patients): 50%
- patients who received ganetespib for 16 weeks or more ([2]; ALK rearrangement, seven of eight): 88%
- patients with tumor shrinkage ([2]; ALK rearrangement, six of eight patients): 75%
- disease control rate ([2]; broad population): 54%
- hepatic and ocular toxicities ([2]; compared with other Hsp90 inhibitors): did not have the serious hepatic or common ocular toxicities
- tolerability ([2]; in vivo): well tolerated
- patients with tumor shrinkage ([2]; tumors with a KRAS mutation): 62%
- evaluable patients with disease control (solid tumors): more than half
- outcome in several patients who had progressed or failed multiple prior therapies (solid tumors): substantial tumor shrinkage and prolonged disease control
- effectiveness at slowing tumor growth in tumors with high levels of hypoxia (HCT116) compared with low levels (786O) [3]: not found to work better
- activity against cancers resistant to imatinib, sunitinib, erlotinib and dasatinib [4]: potent activity
- activity against a wide range of cancer types ([4]; lung, prostate, colon, breast, gastric, pancreatic, GIST, melanoma, AML, CML, lymphomas, multiple myeloma, in vitro and in vivo models): potent activity

Compound: bevacizumab: recombinant humanized monoclonal IgG1 antibody that binds to and inhibits human vascular endothelial growth factor (VEGF)
- tumor burden as compared to control ([5]; bevacizumab higher dose (4 mg/kg) i.p., p=0.011): greatest tumor burden
- tumor burden as compared to control ([5]; low dose bevacizumab (1 mg/kg) i.p., p=0.437): no significant difference in tumor burden
- patients whose tumors shrank (glioblastoma [6]): 26%
- patients who responded (glioblastoma [7]): 20%
- median survival ([8]; bevacizumab and 5-FU/Leucovorin (n=249) vs IFL regimen alone): 17.9 months
- progression-free survival ([8]; bevacizumab plus 5-FU/Leucovorin vs IFL regimen alone): 8.7 months
- tumor growth as compared to control ([9]; bevacizumab higher dose (4 mg/kg) i.p., p=0.0424): reduced the growth of the tumor
- tumor growth as compared to control ([9]; bevacizumab lower concentration (1 mg/kg) i.p., p=0.1274): small trend to decreased tumor growth
- median survival ([10]; bevacizumab arm = bevacizumab plus 5-FU/Leucovorin, comparator 5-FU/Leucovorin alone, not statistically significant): 16.6 months
- improvement in median survival ([10]; bevacizumab plus 5-FU/Leucovorin vs 5-FU/Leucovorin alone): 29%
- median overall survival [11]: 12.5 months
- patients with decreased tumor size (renal cancer; bevacizumab arm = with interferon-alpha, comparator interferon-alpha alone): 30%
- increase in progression-free survival time compared to interferon-alpha alone (renal cancer; bevacizumab with interferon-alpha): about 5 months
- keeping cancer from worsening [12]: does not keep cancer from worsening for a long enough time to be clinically meaningful
- progression free survival HR ([13]; bevacizumab vs placebo arm, both with gemcitabine and erlotinib, 95% CI 0.61 to 0.96, P=0.0002): 0.73
- median overall survival ([13]; bevacizumab, gemcitabine and erlotinib, 306 patients): 7.1 months
- effectiveness at slowing tumor growth in tumors with high levels of hypoxia (HCT116) compared with low levels (786O) [3]: more effective
